Like-named read-outs stand apart in the source and are kept apart here.
How the values were obtained:
[1] = test system: HeLa, human cervical epithelioid carcinoma; test: Cytotoxicity assay (MTT), HeLa; conditions: read-out: Cytotoxicities (IC50), HeLa, 72 h, MTT
[2] = Cytotoxicity assay (MTT), HeLa; conditions: human, HeLa cells
[3] = Cytotoxicity assay (MTT), SUNE1; conditions: human, SUNE1 cells
[4] = target: T1, thioredoxin reductase (TrxR) (Homo sapiens, UniProt Q16881); test: Cellular thioredoxin reductase activity of treated HeLa cells; format: cell-based; conditions: one-hour treatment
T1 sequence (Q16881 1-649): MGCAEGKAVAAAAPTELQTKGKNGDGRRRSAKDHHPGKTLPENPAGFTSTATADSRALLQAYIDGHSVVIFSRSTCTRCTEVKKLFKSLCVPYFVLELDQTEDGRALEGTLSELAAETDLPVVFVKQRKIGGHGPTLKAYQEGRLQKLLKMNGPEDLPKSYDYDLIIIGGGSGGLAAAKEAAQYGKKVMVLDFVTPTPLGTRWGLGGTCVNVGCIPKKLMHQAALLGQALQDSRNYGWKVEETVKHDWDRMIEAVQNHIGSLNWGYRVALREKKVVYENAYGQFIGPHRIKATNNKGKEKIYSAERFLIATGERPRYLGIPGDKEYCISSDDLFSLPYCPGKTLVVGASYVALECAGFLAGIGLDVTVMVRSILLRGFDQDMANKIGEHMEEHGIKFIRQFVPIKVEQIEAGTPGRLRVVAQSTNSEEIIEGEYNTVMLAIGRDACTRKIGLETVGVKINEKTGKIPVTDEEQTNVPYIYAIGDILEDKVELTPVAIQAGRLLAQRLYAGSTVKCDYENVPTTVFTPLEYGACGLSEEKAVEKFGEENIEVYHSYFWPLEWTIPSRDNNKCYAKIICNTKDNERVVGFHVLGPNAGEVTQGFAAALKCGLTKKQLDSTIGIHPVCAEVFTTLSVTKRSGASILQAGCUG
Experimental: Cells were seeded at 2×10^5/well in 6-well plates and incubated for 24 hours. The metal thiourea compounds (10^−9 to 10^−4 M) were serially diluted and added to the cells (final DMSO concentrations≦1%). After an one-hour incubation, cells were washed thrice with phosphate buffered saline and 100 μL ice-cold lysis buffer (50 mM phosphate buffer, pH 7.4, 1 mM EDTA, 0.1% Triton-X 100) were added to the cell layer. Cell lysis was carried on ice for 5 minutes and the cell lysates were collected and stored at −80° C. or assayed immediately. Cell lysates (10 μg proteins) were added to a mixture (100 μL) containing 100 mM phosphate, pH 7.4, 1 mM EDTA and 0.2 mM NADPH.

[5] = test system: glutathione peroxidase (GPx); test: Cellular glutathione peroxidase activity of treated HeLa cells; format: cell-based, human; conditions: one-hour treatment
Experimental: (§1) Cells were seeded at 2×10^5/well in 6-well plates and incubated for 24 hours. The metal thiourea compounds (10^−9 to 10^−4 M) were serially diluted and added to the cells (final DMSO concentrations≦1%). After an one-hour incubation, cells were washed thrice with phosphate buffered saline and 100 μL ice-cold lysis buffer (50 mM phosphate buffer, pH 7.4, 1 mM EDTA, 0.1% Triton-X 100) were added to the cell layer. Cell lysis was carried on ice for 5 minutes and the cell lysates were collected and stored at −80° C. or assayed immediately.
Cell lysates (10 μg proteins) were added to a mixture containing 100 mM phosphate, pH 7.4, 2 mM GSH, 1 U glutathione reductase, and 0.2 mM NADPH. Reaction was initiated by adding tert-butyl hydroperoxide (300 μM) and the NADPH oxidation was measured as decreases in O.D.340 nm in 10 min. GPx activities (ΔO.D.340 nm/min) were determined by subtracting the spontaneous NADPH oxidation in the absence of tert-butyl hydroperoxide.

[6] = test system: panel of cancer cell lines; conditions: Homo sapiens, read-out: half maximal inhibitory concentrations (IC50), panel of cancer cell lines
[7] = Cytotoxicity assay (MTT), HepG2; conditions: human, HepG2 cells
[8] = target: T2, Glutathione reductase (GR) (Homo sapiens, UniProt P00390); test: Cellular glutathione reductase activity of treated HeLa cells; format: cell-based; conditions: one-hour treatment, up to 100 μM
T2 construct: endogenous in cells; host or cells: HeLa
T2 sequence (P00390 44-522): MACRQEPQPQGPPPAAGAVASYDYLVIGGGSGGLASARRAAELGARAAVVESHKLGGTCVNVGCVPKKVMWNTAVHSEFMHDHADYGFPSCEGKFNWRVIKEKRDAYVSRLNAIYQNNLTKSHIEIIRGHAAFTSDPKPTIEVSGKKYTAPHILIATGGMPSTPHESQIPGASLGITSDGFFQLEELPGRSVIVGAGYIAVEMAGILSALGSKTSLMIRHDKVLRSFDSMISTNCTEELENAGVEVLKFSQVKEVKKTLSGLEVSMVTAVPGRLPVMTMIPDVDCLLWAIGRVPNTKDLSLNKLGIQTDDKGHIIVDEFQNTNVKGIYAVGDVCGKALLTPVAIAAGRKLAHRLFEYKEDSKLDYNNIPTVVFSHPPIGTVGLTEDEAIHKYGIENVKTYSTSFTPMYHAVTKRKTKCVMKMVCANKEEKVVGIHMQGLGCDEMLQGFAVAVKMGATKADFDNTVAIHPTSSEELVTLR
Experimental: as §1
Cell lysates (10 μg proteins) were added to a mixture containing 100 mM phosphate, pH 7.4, 1 mM EDTA, 1 mM GSSG and 0.2 mM NADPH. Reaction was initiated by adding DTNB (3 mM final) and the increases in O.D.412 nm were measured for 10 min. GR activities were determined by subtracting the increases in O.D.412 nm in the absence of GSSG.

[9] = Cytotoxicity assay (MTT), NCI-H460; conditions: human, NCI-H460 cells
[10] = test system: SUNE1, human nasopharyngeal carcinoma
[11] = test system: NCI-H460 = human lung carcinoma
[12] = test system: HepG2, human hepatocellular carcinoma
[13] = test system: HeLa, human cervical epithelioid carcinoma
[14] = test system: NCI-H460 non-small cell lung cancer cells; format: in vivo, mice
Experimental: The in vivo experiment was conducted in Pearl Materia Medica Development (Shenzhen) Limited and performed with approval from the Committee on the Use of Live Animals for Teaching and Research. SPF grade four-week-old female BALB/c AnN-nu mice (nude mice, 16-18 g) were purchased. Tumor cells (5×10^6) resuspended in RPMI medium were implanted by subcutaneous injection on the right flank of the mice. When tumors were approximately 50 mm^3 in size, animals were randomly separated into 3 groups to receive treatment of twice-a-week intraperitoneal injection of 10% PET vehicle control (where 10% PET=6% polyethylene glycol 400, 3% ethanol, 1% Tween 80 and 90% PBS), complex 1 (100 mg/kg) or cyclophosphamide (30 mg/kg) for 8 times. After 28 days, the mice were sacrificed and the tumors were isolated and weighted.

Question: Which IC50 [1] does the source give for `O=[N+]([O-])[O-].[Ag+]` [AgNO3, reference compound] here?
Answer: The IC50 was 32.1 ± 1.2 µM.

Question: What does the source list for `COc1ccc(N2CCN(c3ccc(OC)cc3)C2=S)cc1` [TU, 1,3-bis(4-methoxyphenyl)imidazolidine-2-thione, reference compound]?
Answer: IC50 at 72 h [2]: > 100 µM; IC50 at 72 h [3]: > 100 µM; effect on cellular TrxR activity, added up to 100 μM [4]: not affected; effect on cellular GPx activity, added up to 100 μM [5]: not affected; IC50 [6]: > 100 µM; IC50 at 72 h [7]: > 100 µM; effect on cellular GR activity, added up to 100 μM [8]: not affected; IC50 at 72 h [9]: > 100 µM

Question: With `F[P-](F)(F)(F)(F)F.NC(N)=S.NC(N)=S.[Cu+]` [complex 3, [Cu(TU)2]PF6] as the compound, how does the IC50 [10] read?
Answer: Its IC50 is 8.5 ± 1 µM.

Question: And the IC50 [11]?
Answer: Its IC50 is 11.2 ± 0.9 µM.

Question: And the “effect on cellular TrxR activity, added up to 100 μM” value [4]?
Answer: Its value is “not affected”.

Question: What about the “effect on cellular GPx activity, added up to 100 μM” value [5] of the same compound?
Answer: The value was “not affected”.

Question: And the “effect on cellular GR activity, added up to 100 μM” value [8]?
Answer: The value was “not affected”.

Question: And the IC50 [12]?
Answer: Its IC50 is 13 ± 0.9 µM.

Question: What about the IC50 [13] of the same compound?
Answer: Its IC50 is 12.7 ± 0.9 µM.

Question: What does the source list for `O=P1(N(CCCl)CCCl)NCCCO1` (stereo not drawn) [cyclophosphamide]?
Answer: Tumor volume, Day 13 ([14]; Day 13, 30 mg/kg i.p. twice a week): 325.041 ± 170.053 mm^3; Tumor volume, Day 17 ([14]; Day 17, 30 mg/kg i.p. twice a week): 639.465 ± 422.362 mm^3; Tumor volume, Day 21 ([14]; Day 21, 30 mg/kg i.p. twice a week): 1032.258 ± 594.026 mm^3; Tumor volume, Day 25 ([14]; Day 25, 30 mg/kg i.p. twice a week): 1474.100 ± 900.357 mm^3; Tumor volume, Day 29 ([14]; Day 29, 30 mg/kg i.p. twice a week): 1438.735 ± 845.815 mm^3

Reference: patent US8722897B2, “Metal complexes of thiourea and derivatives as metal delivering anti-cancer and anti-inflammatory agents” (priority 2010, dated 2014)
